# Counter-ions that a name gives are not always drawn.
# Molecular target: T1, human HIF-PHD2 (Homo sapiens, UniProt Q9GZT9)
# T1 construct: FLAG-tagged full length PHD2 expressed in and purified from baculovirus-infected Sf9 cells; FLAG; made in house; host or cells: baculovirus-infected Sf9 cells
# Test: HIF-PHD2 inhibition: hydroxylation of HIF-1α peptide, time resolved fluorescence
# Assay type: biochemical
# Details: FLAG-tagged full length PHD2; 0.2 μM 2-oxoglutarate, 0.5 μM HIF-1α peptide
# Description: To each well of a 384-well plate, 1 μL of test compounds in DMSO (final concentration ranging from 0.3 nM to 10 μM) were added into 20 μl of assay buffer (50 mM Tris pH 7.4/0.01% Tween-20/0.1 mg/ml bovine serum albumin/10 μM ferrous sulfate/1 mM sodium ascorbate/20 μg/ml catalase) containing 0.15 μg/ml FLAG-tagged full length PHD2 expressed in and purified from baculovirus-infected Sf9 cells. After a 5 min preincubation at room temperature, the enzymatic reactions were initiated by the addition of 4 μL of substrates {final concentrations of 0.2 μM 2-oxoglutarate and 0.5 μM HIF-1α peptide biotinyl-DLDLEMLAPYIPMDDDFQL (SEQ ID NO: 1)}. After incubation for 45 minutes at room temperature, the reactions were terminated by the addition of a 25 μL quench/detection mix to a final concentration of 1 mM ortho-phenanthroline, 0.1 mM EDTA, 0.5 nM anti-(His)6 LANCE reagent (Perkin-Elmer Life Sciences), 100 nM AF647-labeled streptavidin (Invitrogen), and 2 μg/ml (His)6-VHL complex {S. Tan Protein Expr. Purif. 21, 224-234 (2001)} and the signals were developed for 30 minutes at room temperature. The ratio of time resolved fluorescence signals at 665 and 620 nm was determined, and percent inhibition was calculated relative to the high control samples (DMSO treated) run in parallel, after background subtraction.
# T1 sequence (Q9GZT9 whole entry): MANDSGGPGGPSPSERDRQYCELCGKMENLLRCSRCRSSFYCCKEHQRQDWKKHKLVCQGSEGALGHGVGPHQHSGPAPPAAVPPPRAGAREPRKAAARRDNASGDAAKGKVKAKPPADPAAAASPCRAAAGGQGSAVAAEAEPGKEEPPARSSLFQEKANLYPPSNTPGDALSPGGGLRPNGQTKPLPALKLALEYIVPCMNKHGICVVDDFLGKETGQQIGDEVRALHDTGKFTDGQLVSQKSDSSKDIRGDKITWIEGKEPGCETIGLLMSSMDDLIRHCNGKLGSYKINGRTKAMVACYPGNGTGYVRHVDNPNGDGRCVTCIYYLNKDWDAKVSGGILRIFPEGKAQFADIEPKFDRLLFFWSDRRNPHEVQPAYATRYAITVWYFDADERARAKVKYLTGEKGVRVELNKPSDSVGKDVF
row,Structure (SMILES),IC50 [nM]
1,"N#Cc1ccc(C(NC(=O)c2cnc(C(=O)NC[C@@H](O)C(=O)O)nc2O)c2ccccc2)cc1 (single isomer, unassigned) [Example 8]",6.8
2,"COc1ccc(-c2ccc(C(C)(C)NC(=O)c3cnc(C(=O)NCC(C)C(=O)O)nc3O)cn2)cc1 (single isomer, unassigned) [Example 19, (R) or (S)-3-(4-hydroxy-5-((2-(6-(4-methoxyphenyl)pyridin-3-yl)propan-2-yl)carbamoyl)pyrimidine-2-carboxamido)-2-methylpropanoic acid]",2.8
3,"CC(CNC(=O)c1ncc(C(=O)NC(C)(C)c2ccc(-c3ccc(C(F)(F)F)cc3)cc2)c(O)n1)C(=O)O (single isomer, unassigned) [Example 20, (R) or (S)-3-(4-hydroxy-5-((2-(4′-(trifluoromethyl)-[1,1′-biphenyl]-4-yl)propan-2-yl)carbamoyl)pyrimidine-2-carboxamido)-2-methylpropanoic acid]",8.1
4,"CC(CNC(=O)c1ncc(C(=O)NC(C)(C)c2ccc(-c3cccc4cnccc34)cc2)c(O)n1)C(=O)O (single isomer, unassigned) [Example 21, (R) or (S)-2-((2-carboxypropyl)carbamoyl)-6-hydroxy-5-((2-(4-(isoquinolin-5-yl)phenyl)propan-2-yl)carbamoyl)pyrimidin-1-ium formate]",4.8
5,"CC(CNC(=O)c1ncc(C(=O)NC(C)(C)c2ccc(-c3cccnc3)cc2)c(O)n1)C(=O)O (single isomer, unassigned) [Example 22, (R) or (S)-2-((2-carboxypropyl)carbamoyl)-6-hydroxy-5-((2-(4-(pyridin-3-yl)phenyl)propan-2-yl)carbamoyl)pyrimidin-1-ium formate]",3
6,"Cc1cc(C#N)ccc1-c1ccc(C(C)(C)NC(=O)c2cnc(C(=O)NCC(C)C(=O)O)nc2O)cc1 (single isomer, unassigned) [Example 23, (R) or (S)-3-(5-((2-(4′-cyano-2′-methyl-[1,1′-biphenyl]-4-yl)propan-2-yl)carbamoyl)-4-hydroxypyrimidine-2-carboxamido)-2-methylpropanoic acid]",12
7,"CC(CNC(=O)c1ncc(C(=O)NC(C)(C)c2ccc(-c3cc[nH]n3)cc2)c(O)n1)C(=O)O (single isomer, unassigned) [Example 27, (R) or (S)-5-((2-(4-(1H-pyrazol-3-yl)phenyl)propan-2-yl)carbamoyl)-2-((2-carboxypropyl)carbamoyl)-6-hydroxypyrimidin-1-ium formate]",5.8
8,"CC(CNC(=O)c1ncc(C(=O)NC2(c3ccc(-c4ccc(Cl)cc4)cc3)CC2)c(O)n1)C(=O)O (single isomer, unassigned) [Example 30, (R) or (S)-3-(5-((1-(4′-chloro-[1,1′-biphenyl]-4-yl)cyclopropyl)carbamoyl)-4-hydroxypyrimidine-2-carboxamido)-2-methylpropanoic acid]",13
9,"COc1ccc(-c2ccc(C3(NC(=O)c4cnc(C(=O)NCC(C)C(=O)O)nc4O)CC3)cc2)cn1 (single isomer, unassigned) [Example 33, (R) or (S)-2-((2-carboxypropyl)carbamoyl)-6-hydroxy-5-((1-(4-(6-methoxypyridin-3-yl)phenyl)cyclopropyl)carbamoyl)pyrimidin-1-ium chloride]",4.3
10,"CC(O)(CNC(=O)c1ncc(C(=O)NC(c2ccccc2)c2ccccc2)c(O)n1)C(=O)O (stereo not drawn) [Example 3, 3-(5-(Benzhydrylcarbamoyl)-4-hydroxypyrimidine-2-carboxamido)-2-hydroxy-2-methylpropanoic acid]",4.1

# Results, then the compound that gave them:
row,IC50 [nM],Structure (SMILES)
1,27.2,"N#Cc1ccc(C(NC(=O)c2cnc(C(=O)NC[C@@H](O)C(=O)O)nc2O)c2ccccc2)cc1 (single isomer, unassigned) [Example 9]"
2,15,"COc1ccc(C(NC(=O)c2cnc(C(=O)NCC(C)C(=O)O)nc2O)c2ccc(OC)cc2)cc1 (single isomer, unassigned) [Example 18, (R) or (S)-3-(5-((bis(4-methoxyphenyl)methyl)carbamoyl)-4-hydroxypyrimidine-2-carboxamido)-2-methylpropanoic acid]"
3,4.8,"CC(CNC(=O)c1ncc(C(=O)NC(C)(C)c2ccc(-c3ccc(F)cc3)cc2)c(O)n1)C(=O)O (single isomer, unassigned) [Example 24, (R) or (S)-3-(5-((2-(4′-fluoro-[1,1′-biphenyl]-4-yl)propan-2-yl)carbamoyl)-4-hydroxypyrimidine-2-carboxamido)-2-methylpropanoic acid]"
4,13,"CC(CNC(=O)c1ncc(C(=O)NC(C)(C)c2ccc(-c3ccc(OC(F)(F)F)cc3)cc2)c(O)n1)C(=O)O (single isomer, unassigned) [Example 25, (R) or (S)-3-(4-hydroxy-5-((2-(4′-(trifluoromethoxy)-[1,1′-biphenyl]-4-yl)propan-2-yl)carbamoyl)pyrimidine-2-carboxamido)-2-methylpropanoic acid]"
5,3.4,"COc1ccc(-c2ccc(C(C)(C)NC(=O)c3cnc(C(=O)NCC(C)C(=O)O)nc3O)cc2)cn1 (single isomer, unassigned) [Example 26, (R) or (S)-2-((2-carboxypropyl)carbamoyl)-6-hydroxy-5-((2-(4-(6-methoxypyridin-3-yl)phenyl)propan-2-yl)carbamoyl)pyrimidin-1-ium chloride]"
6,5.9,"CC(CNC(=O)c1ncc(C(=O)NC(C)(C)c2ccc(-c3ccc(Cl)cc3)cc2)c(O)n1)C(=O)O (single isomer, unassigned) [Example 28, (R) or (S)-3-(5-((2-(4′-chloro-[1,1′-biphenyl]-4-yl)propan-2-yl)carbamoyl)-4-hydroxypyrimidine-2-carboxamido)-2-methylpropanoic acid]"
7,10,"CC(CNC(=O)c1ncc(C(=O)NC2(c3ccc(-c4cccc5cnccc45)cc3)CC2)c(O)n1)C(=O)O (single isomer, unassigned) [Example 31, (R) or (S)-2-((2-carboxypropyl)carbamoyl)-6-hydroxy-5-((1-(4-(isoquinolin-5-yl)phenyl)cyclopropyl)carbamoyl)pyrimidin-1-ium formate]"
8,12,"CC(CNC(=O)c1ncc(C(=O)NC2(c3ccc(-c4ccc(F)cc4)cc3)CC2)c(O)n1)C(=O)O (single isomer, unassigned) [Example 32, (R) or (S)-3-(5-((1-(4′-fluoro-[1,1′-biphenyl]-4-yl)cyclopropyl)carbamoyl)-4-hydroxypyrimidine-2-carboxamido)-2-methylpropanoic acid]"
9,0.58,"CNc1ccc(C(NC(=O)c2cnc(C(=O)NCCC(=O)O)nc2O)c2ccc(OC)cc2)cn1 (single isomer, unassigned) [Example 34, (R) or (S)-3-(4-hydroxy-5-(((4-methoxyphenyl)(6-(methylamino)pyridin-3-yl)methyl)carbamoyl)pyrimidine-2-carboxamido)propanoic acid]"
10,0.9,"O=C(NCC(O)C(=O)O)c1ncc(C(=O)NC(c2ccccc2)c2ccccc2)c(O)n1 (stereo not drawn) [Example 5, 3-(5-(benzhydrylcarbamoyl)-4-hydroxypyrimidine-2-carboxamido)-2-hydroxypropanoic acid]"
11,6.8,"COc1ccc([C@@H](NC(=O)c2cnc(C(=O)NC[C@@H](O)C(=O)O)nc2O)c2ccccc2)cc1 [Example 10, (R)-2-Hydroxy-3-(4-hydroxy-5-(((S)-(4-methoxyphenyl) (phenyl)methyl)carbamoyl)pyrimidine-2-carboxamido)propanoic acid]"

# Source: patent US20170247336A1 (MERCK SHARP & DOHME CORP., priority 2014, published 2017)
